System: Delayed type hypersensitivity (DTH) skin reaction
Assay: Inhibition of DTH skin reactions (oxazolone-induced mouse ear swelling test)
Assay type: in vivo, female Balb/c mice
Conditions: for % Inf ((diff/baseline measurement)×100) / % Inhibit ([1−(diff/diff of PBS)]×100) / Diff. (average difference between baseline and post treatment ear measurements): 24 hours after challenge; for effectiveness in the DTH skin reaction model: 5-100 mg/ml
Procedure: Delayed type hypersensitivity (DTH), a localized inflammatory reaction induced by cytokines secreted by TH cells when they encounter certain types of antigens, is an established experimental model for skin inflammation.
DTH reactions were induced in the abdomen skin of 8 week old female Balb/c mice. The mice were sensitized first by topical application of 100 μl of a 5% Oxazolone (4-Ethoxymethylene-2-phenyl-2-oxazolin-5-one; Sigma) solution in ethanol/acetone (3:1, vol/vol) to a shaved abdomen. The mice were anesthetized with ip injection of Ketamine (1 ml)+Xylazine (1 ml)+Saline (8 ml), (0.2 ml per 20 g mouse). Anesthetization was performed before the shaving of the abdomen and the first sensitization.
After 4 days the mice were challenged for the second time using 1% Oxazolone (4-Ethoxymethylene-2-phenyl-2-oxazolin-5-one; Sigma) solution in ethanol/acetone (3:1, vol/vol). The solution was pipetted to the shaved abdomen of the mice.
Six days after the first sensitization, the right ear of each mouse was challenged with a topical application of 20 μl (10 μl on each surface of the ear) of a 1% Oxazolone solution in olive oil/acetone (3:1, vol/vol).
Treatment was given 30 min after challenging by applying 40 μl (20 μl on each surface of the ear) of treatment compounds on the challenged ear of each mouse.
After 24 hours, the extent of inflammation was measured using the mouse ear swelling test (caliper) and the percent inhibition induced by the treatment was quantified.
The experiment includes groups treated with 5, 15, 40, and 100 mg/ml of octadec-(Z)-9-enoic acid 4-dimethylaminomethyl-benzyl ester HCl (1c) and groups treated with 5, 15, 40, and 100 mg/ml of octadec-(Z)-9-enoic acid 4-dimethylaminomethyl-phenyl ester HCl (2d). The experiment also includes dexamethasone (2 mg/mouse) as a positive control, one negative control group (PBS, phosphate buffered saline), and one naïve group. There were 6 mice per group. The researchers who performed the measurements were blinded as to the grouping of each mouse.
In Table 1, “diff” refers to average difference between baseline and post treatment measurements in mm; “% Inf” refers to the (diff/baseline measurement)×100; and, “% Inhibit” refers to [1−(diff/diff of PBS)]×100. Baseline measurements of the ear were conducted before the first sensitization.

[1] = topical on challenged ear, treatment 5 mg/ml (0.2 mg/mouse)
[2] = topical on challenged ear, treatment 15 mg/ml (0.6 mg/mouse)
[3] = topical on challenged ear, treatment 40 mg/ml (1.6 mg/mouse)
[4] = topical on challenged ear, treatment 100 mg/ml (4 mg/mouse)
[5] = positive control, dose 2 mg/mouse

Row | Compound | % Inf ((diff/baseline measurement)×100) [1] [%] | % Inhibit ([1−(diff/diff of PBS)]×100) [1] [%] | Diff. (average difference between baseline and post treatment ear measurements) [1] [mm] | % Inf ((diff/baseline measurement)×100) [2] [%] | % Inhibit ([1−(diff/diff of PBS)]×100) [2] [%] | Diff. (average difference between baseline and post treatment ear measurements) [2] [mm] | % Inf ((diff/baseline measurement)×100) [3] [%] | % Inhibit ([1−(diff/diff of PBS)]×100) [3] [%] | Diff. (average difference between baseline and post treatment ear measurements) [3] [mm] | % Inf ((diff/baseline measurement)×100) [4] [%] | % Inhibit ([1−(diff/diff of PBS)]×100) [4] [%] | Diff. (average difference between baseline and post treatment ear measurements) [4] [mm] | effectiveness in the DTH skin reaction model (topical) | most effective doses (DTH skin reaction model, topical) [mg/mL] | % Inf ((diff/baseline measurement)×100) [5] [%] | % Inhibit ([1−(diff/diff of PBS)]×100) [5] [%] | Diff. (average difference between baseline and post treatment ear measurements) [5] [mm]
1 | CCCCCCCC/C=C\CCCCCCCC(=O)OCc1ccc(CN(C)C)cc1.Cl [Compound 1c, Octadec-(Z)-9-enoic acid 4-dimethylaminomethyl-benzyl ester HCl] | 92.65 | 26.74 | 0.20 | 103.21 | 26.01 | 0.20 | 58.56 | 54.82 | 0.12 | 48.19 | 63.37 | 0.10 | effective | – | – | – | –
2 | CCCCCCCC/C=C\CCCCCCCC(=O)Oc1ccc(CN(C)C)cc1.Cl [Compound 2d, Octadec-(Z)-9-enoic acid 4-dimethylaminomethyl-phenyl ester HCl] | 113.46 | 13.31 | 0.24 | 107.18 | 21.25 | 0.22 | 114.66 | 13.31 | 0.24 | 55.96 | 59.10 | 0.11 | effective | 100 | – | – | –
3 | C[C@@H]1C[C@H]2[C@@H]3CCC4=CC(=O)C=C[C@]4(C)[C@@]3(F)[C@@H](O)C[C@]2(C)[C@@]1(O)C(=O)CO [Positive control, dexamethasone, reference compound] | – | – | – | – | – | – | – | – | – | – | – | – | – | – | 20.55 | 84.74 | 0.04

Source: patent US7294739B1, “Basic amine esters or oleic acid and their use as anti-inflammatory or immunobodulatory agents” (Teva Pharmacaetical Industries Ltd., priority 2006, dated 2007)
